Source: PubChem BioAssay AID330 (DTP/NCI, 2004)
Several values for one entry are separate records, joined by “and”; a condition that tells them apart may be missing. Equal values may be shown once. Inconclusive results and toxic doses are left out. How the source made its calls: active means survival T/C of 150% or more; inactive means T/C below 125% in these data.

Tested on: P388 leukemia ip, CD2F1 mice, survival T/C
Experiment: NCI In Vivo Anticancer Drug Screen. Data for tumor model P388 Leukemia (intraperitoneal) in CD2F1 (CDF1) mice
Details: endpoint: median survival time, higher = longer survival
Summary of the method: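 Mice carrying the transplanted tumor received test compound or vehicle. Survival was recorded in each group, and the value is the treated-group measurement divided by that of the vehicle-treated control group.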

[1] = dose: 50.0 mg/kg/injection, schedule: Q01DX009 (ip), vehicle: Klucel (hydroxypropylcellulose) (HPC)
[2] = dose: 100.0 mg/kg/injection, schedule: Q01DX009 (ip), vehicle: Klucel (hydroxypropylcellulose) (HPC)
[3] = dose: 200.0 mg/kg/injection, schedule: Q01DX009 (ip), vehicle: Klucel (hydroxypropylcellulose) (HPC)
[4] = dose: 100.0 mg/kg/injection, schedule: Q01DX001 (ip), vehicle: saline with Tween-80
[5] = dose: 200.0 mg/kg/injection, schedule: Q01DX001 (ip), vehicle: saline with Tween-80
[6] = dose: 400.0 mg/kg/injection, schedule: Q01DX001 (ip), vehicle: saline with Tween-80

Measured: T/C

CCN(CC)C(=S)S[Se](SC(=S)N(CC)CC)(SC(=S)N(CC)CC)SC(=S)N(CC)CC
inactive: dose: 12.5 mg/kg/injection, schedule: Q01DX009 (ip), vehicle: Klucel (hydroxypropylcellulose) (HPC) 103 % of control | dose: 25.0 mg/kg/injection, schedule: Q01DX009 (ip), vehicle: Klucel (hydroxypropylcellulose) (HPC) 100 % of control | [1] 97 % of control | [2] 104 % of control

C=CCOC1CC(C)(O)Cc2cc3c(c(O)c21)C(=O)c1c(O)cc2c(c1C3=O)OC1OC2(C)C(O)C(N(C)C)C1O (centres undefined)
inactive: dose: 1.25 mg/kg/injection, schedule: Q01DX009 (ip), vehicle: other 114 % of control | dose: 2.5 mg/kg/injection, schedule: Q01DX009 (ip), vehicle: other 120 % of control | dose: 10.0 mg/kg/injection, schedule: Q01DX009 (ip), vehicle: other 123 % of control

COc1ccccc1NC(=O)C1C(=O)C(=O)N(c2ccccc2OC)C1=O (centres undefined)
inactive: [1] 106 % of control | [2] 106 % of control | [3] 100 % of control

CCCCCN(CCC)CCCCCCCCCN1CCCc2cc(OC)ccc21
inactive: dose: 50.0 mg/kg/injection, schedule: Q01DX005 (ip), vehicle: saline + Tween-80 + alcohol 105 % of control | dose: 100.0 mg/kg/injection, schedule: Q01DX005 (ip), vehicle: saline + Tween-80 + alcohol 110 % of control

COc1ccc(/C=N/Nc2nnc3c4cccnc4c4ccccc4c3n2)cc1OC
inactive: dose: 3.12 mg/kg/injection, schedule: Q01DX001 (ip), vehicle: saline with Tween-80 102 % of control and 87 % of control | dose: 6.25 mg/kg/injection, schedule: Q01DX001 (ip), vehicle: saline with Tween-80 100 % of control and 87 % of control | dose: 50.0 mg/kg/injection, schedule: Q01DX001 (ip), vehicle: saline with Tween-80 104 % of control and 112 % of control | [4] 100 % of control and 111 % of control | [5] 106 % of control and 114 % of control | [6] 107 % of control

O=C1Sc2ccccc2Cn2cccc21
inactive: dose: 60.0 mg/kg/injection, schedule: Q01DX005 (ip), vehicle: saline with Tween-80 108 % of control | dose: 120.0 mg/kg/injection, schedule: Q01DX005 (ip), vehicle: saline with Tween-80 108 % of control | dose: 240.0 mg/kg/injection, schedule: Q01DX005 (ip), vehicle: saline with Tween-80 123 % of control

CC(C)(C)N=C(CCN1CCN(CCC(=NC(C)(C)C)Nc2ccc(Cl)cc2)CC1)Nc1ccc(Cl)cc1
inactive: [1] 87 % of control | [2] 93 % of control | [3] 96 % of control

COc1cc(/C=N/n2cnnc2)cc(OC)c1OC
inactive: dose: 100.0 mg/kg/injection, schedule: Q01DX009 (ip), vehicle: saline 100 % of control | dose: 200.0 mg/kg/injection, schedule: Q01DX009 (ip), vehicle: saline 108 % of control | dose: 400.0 mg/kg/injection, schedule: Q01DX009 (ip), vehicle: saline 100 % of control

CCCCCCCCCCCCCCCC(=O)NC1CC(OC2CC(O)(C(C)=O)Cc3c(O)c4c(c(O)c32)C(=O)c2c(OC)cccc2C4=O)OC(C)C1O (centres undefined)
inactive: dose: 0.75 mg/kg/injection, schedule: Q01DX009 (ip), vehicle: other 111 % of control | dose: 1.5 mg/kg/injection, schedule: Q01DX009 (ip), vehicle: other 98 % of control | dose: 3.0 mg/kg/injection, schedule: Q01DX009 (ip), vehicle: other 113 % of control

COc1ccccc1C1OC(=N)C(=S)N1C (centres undefined)
inactive: dose: 60.0 mg/kg/injection, schedule: Q01DX005 (ip), vehicle: Klucel (hydroxypropylcellulose) (HPC) 107 % of control | dose: 120.0 mg/kg/injection, schedule: Q01DX005 (ip), vehicle: Klucel (hydroxypropylcellulose) (HPC) 111 % of control | dose: 240.0 mg/kg/injection, schedule: Q01DX005 (ip), vehicle: Klucel (hydroxypropylcellulose) (HPC) 113 % of control

Cc1ccc(NC(=S)N/N=C\c2nc3ccccc3c3ccccc23)cc1
inactive: dose: 100.0 mg/kg/injection, schedule: Q04DX002 (ip), vehicle: Klucel (hydroxypropylcellulose) (HPC) 98 % of control | dose: 200.0 mg/kg/injection, schedule: Q04DX002 (ip), vehicle: Klucel (hydroxypropylcellulose) (HPC) 92 % of control | dose: 400.0 mg/kg/injection, schedule: Q04DX002 (ip), vehicle: Klucel (hydroxypropylcellulose) (HPC) 93 % of control

Cc1cc(NC(=O)C(=O)CC(=O)c2ccc(Cl)c(Cl)c2)no1
inactive: [4] 101 % of control | [5] 108 % of control | [6] 97 % of control
